According to US20170281651A1, “CONCOMITANT ADMINISTRATION OF GLUCOCORTICOID RECEPTOR MODULATORS AND CYP3A OR STEROIDOGENESIS INHIBITORS” (Corcept Therapeutics, Inc., priority 2017, published 2017):
Where “and” joins values, the source holds several entries; their conditions need not be identical. Equal entries are not always repeated. Where two headings read alike, the source gives them in different places.

Assays:
Assay type in all cases: in vivo, human
[1] = Example 2: safety (adverse events, physical examinations, laboratory tests)
Experimental: This was an open-label study in healthy male subjects. […] The 400 mg single dose of ketoconazole was given to all subjects on day 8.
Safety was assessed by spontaneously reported adverse events, physical examinations, and routine clinical laboratory tests. Adverse event data were tabulated. Physical findings and laboratory test results were listed by subject.

[2] = Example 3: safety (adverse events, laboratory tests, vital signs, ECG)
Experimental: A single dose of ketoconazole was administered on Day −1.

[3] = Examples 4-7: liver function of a patient with excess cortisol switched to reduced mifepristone dose plus ketoconazole
[4] = Example 1: effect of oral ketoconazole (400 mg OD or 200 mg BID) on plasma pharmacokinetics of a 300 mg single dose of mifepristone, fasted; conditions: for Cmax / AUC(0-t) / half-life / Tmax: male, human, plasma, oral; for AUC(0-t): read-out: AUCt (AUC0-24 hours, mean); for half-life: read-out: T1/2 (mean) (converted); for Tmax: read-out: Tmax (median)
Excerpt: This study was an open-label study in healthy male subjects.
Healthy male volunteers between the ages of 18 to 45 years of age with a body mass index (BMI) ranging between 19 and 32 kg/m2 and a weight of at least 60 kg (132 lbs) were enrolled. Subjects had no clinically significant abnormal findings on the physical examination, ECG, blood pressure, heart rate, medical history, or clinical laboratory results during screening. The QTc interval at screening was less than 450 msec.
In cohort 1, six subjects received ketoconazole 400 mg OD for 14 days.
Subjects remained in the clinic on Days 2 and 3 to receive 400 mg OD oral ketoconazole fasted, and for safety evaluation and collection of blood pharmacokinetic (PK) samples. Subjects were discharged from the clinic on Day 4 following administration of 400 mg OD oral ketoconazole fasted, and returned to the clinic the mornings of Days 5 through 13 to receive 400 mg OD oral ketoconazole fasted.
In cohort 2, six subjects received ketoconazole 200 mg BID for 14 days. […] All 12 subjects completed the study. Cohort 2 subjects participated in a Screening visit to assess eligibility and a check-in Day (Day −1) during which eligibility was re-confirmed. […] The evening of Day 1, subjects received 200 mg oral ketoconazole. Subjects remained in the clinic on Days 2, 3 and 4 to receive 200 mg BID oral ketoconazole, and for safety evaluation and collection of blood pharmacokinetic (PK) samples. Subjects were discharged from the clinic on Day 4 following evening administration of 200 mg oral ketoconazole, and returned to the clinic the morning and evening of Days 5 through 13 to receive 200 mg BID oral ketoconazole. Morning doses of ketoconazole on Days 0-13 were administered in the fasted state.
Subjects in both cohorts returned to the study center on Day 15 for safety monitoring, and completion of the Termination Visit procedures, followed by discharge from the study. Safety was assessed by spontaneously reported adverse events, physical examinations, and routine clinical laboratory tests. To the extent possible, any adverse events deemed study drug-related and that were ongoing at the time of discharge from the study were followed-up to resolution or until a determination is made that the unresolved event was stable.
Descriptive statistics (count, mean, median, standard deviation, minimum, maximum, and % coefficient of variation) were provided. […] Comparisons with previous study data were made.

[5] = Example 3: Phase 1 study of ketoconazole 200 mg twice daily with mifepristone 600 mg once daily with food, plasma PK incl. cross-study comparison
[6] = C2/C1 (Keto 200 mg BID vs 400 mg OD)
[7] = MIFE 300 mg single dose fasted + Keto 200 mg BID (Cohort 2)
[8] = MIFE 300 mg single dose fasted + Keto 400 mg OD (Cohort 1)
[9] = Test: Day 17 600 mg mifepristone OD + 200 mg Ketoconazole BID, Reference: Day 12 600 mg mifepristone OD
[10] = Test: Present Study Day 17 600 mg mifepristone OD + 200 mg Ketoconazole BID, Reference: Historic Study Day 7 1200 mg mifepristone OD alone, after 34% fat meal

CC#C[C@]1(O)CC[C@H]2[C@@H]3CCC4=CC(=O)CCC4=C3[C@@H](c3ccc(N(C)C)cc3)C[C@@]21C [mifepristone, 11β-(4-dimethylaminophenyl)-17β-hydroxy-17α-(1-propynyl)-estra-4,9-dien-3-one]
TEAEs considered possibly or probably related to administration ([1]; four subjects in Cohort 2 (600 mg)): dizziness, nausea, vomiting, dry mouth, and rash | SAE ([1]; mifepristone 300 or 600 mg OD 8 days + 400 mg ketoconazole Day 8): No subject experienced an SAE | subjects with at least 1 TEAE ([1]; twelve subjects, mifepristone 300 or 600 mg OD 8 days + 400 mg ketoconazole Day 8): 50% | subjects reporting at least one TEAE ([2]; during the mifepristone/ketoconazole treatment period): 57.1% | subjects reporting at least one TEAE ([2]; during treatment with mifepristone alone (600 mg once daily)): 55.6% | subjects with elevated laboratory test results reported as drug-related TEAEs ([2]; liver enzymes (one subject), creatinine (two subjects), from Day 14): Three subjects | effects on hematology or urinalysis parameters, vital signs, or ECGs ([2]; multiple-dose mifepristone with or without multiple-dose ketoconazole): No clinically significant effects | deaths or SAEs ([2]; whole study): No deaths or SAEs | severe TEAEs ([2]; whole study): No severe TEAEs | liver function of the patient ([3]; daily dose reduced from 600 mg to 300 mg with concomitant ketoconazole): not significantly compromised | liver function of the patient ([3]; daily dose reduced from 900 mg to 600 mg with concomitant ketoconazole): not significantly compromised | liver function of the patient ([3]; daily dose reduced from 1200 mg to 900 mg with concomitant ketoconazole): not significantly compromised | liver function of the patient ([3]; daily dose reduced from 1500 mg to 1200 mg with concomitant ketoconazole): not significantly compromised | Mean Ratio AUCtotal (AUCinf, geometric mean ratio) [4, 6]: 1.05 | Mean Ratio Cmax (geometric mean ratio) [4, 6]: 1.15 | Terminal half-life Cohort 2 versus Cohort 1 ([4]; Keto 200 mg BID vs 400 mg OD): approximately the same | Tmax Cohort 2 versus Cohort 1 ([4]; Keto 200 mg BID vs 400 mg OD): shorter | AUCtot (AUCtotal, mean) [4, 7]: 130.925 µg·h/mL | AUCtot (AUCtotal, mean) [4, 8]: 116.939 µg·h/mL | Cmax [4, 7]: 4140 ng/mL | AUC(0-t) [4, 7]: 40600 ng·h/mL | half-life [4, 7]: 2240 min | Tmax [4, 7]: 1 h | Cmax [4, 8]: 3400 ng/mL | AUC(0-t) [4, 8]: 38100 ng·h/mL | half-life [4, 8]: 2230 min | Tmax [4, 8]: 2 h | exposure as percent of that following the highest labeled dose (1200 mg daily) ([5]; 600 mg mifepristone once daily with 200 mg ketoconazole twice daily): approximately 85% | effect of ketoconazole on exposure (90% CI vs standard 80:125 interval) ([5]; Day 17 vs Day 12): increased | difference of time 0 (pre-dose) plasma concentration ([5]; Day 17 vs Day 12, FIG. 2): ~500 ng/mL | concentrations on Day 17 compared with Day 12 ([5]; Day 17 with 200 mg ketoconazole twice daily, Day 12 mifepristone alone): higher | AUC0-24 Ratio % Test/Reference (geometric mean ratio) [5, 9]: 138.01% | Cmax Ratio % Test/Reference (geometric mean ratio) [5, 9]: 127.59% | AUC0-24 Ratio % Test/Ref (cross-study, geometric mean ratio) [5, 10]: 87.27% and 87% | Cmax Ratio % Test/Ref (cross-study, geometric mean ratio) [5, 10]: 84.64% | AUC0-24 Ratio % Test/Ref (cross-study, geometric mean ratio) ([5]; Test: Present Study Day 17 600 mg mifepristone OD + 200 mg Ketoconazole BID, Reference: Historic Study Day 7 1200 mg mifepristone OD alone, after 34% fat meal, listed as Mifepristone): 87.27% | exposure less than that of 1200 mg mifepristone in the absence of ketoconazole ([5]; mifepristone 600 mg co-administered with ketoconazole): 13-15%
